{"source": "patent US5834461A", "about": "“Tricyclic benzazepine vasopressin antagonists” (American Cyanamid Company, priority 1997, dated 1998)", "key": {"[1]": {"molecular_target": "T1, rat kidney medullary V2 receptors (Rattus norvegicus, UniProt Q00788)", "T1 construct": "Medullary tissues from rat kidneys are dissected out; from tissue; host or cells: rat kidney medulla membranes", "T1 sequence (Q00788 whole entry)": "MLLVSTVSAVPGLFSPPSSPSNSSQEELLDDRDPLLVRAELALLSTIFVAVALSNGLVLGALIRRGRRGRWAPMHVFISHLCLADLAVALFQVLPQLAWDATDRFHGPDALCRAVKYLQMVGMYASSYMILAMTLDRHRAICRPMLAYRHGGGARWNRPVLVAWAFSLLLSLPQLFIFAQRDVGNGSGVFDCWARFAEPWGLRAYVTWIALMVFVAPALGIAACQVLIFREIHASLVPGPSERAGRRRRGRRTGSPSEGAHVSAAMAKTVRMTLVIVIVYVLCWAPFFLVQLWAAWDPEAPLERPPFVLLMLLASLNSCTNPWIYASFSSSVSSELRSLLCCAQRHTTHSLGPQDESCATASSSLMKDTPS", "assay": "Binding Assay to Rat Kidney Medullary V2 Receptors", "conditions": "rat kidney medullary V2", "outline": "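Competition binding: [3H]AVP at 0.8 nM, test compounds from 50% DMSO, and membranes from rat kidney medulla, left 120 min on the bench. Filtration then liquid scintillation counting measured bound ligand; 1.0 μM unlabeled ligand set non-specific binding.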"}, "[2]": {"molecular_target": "vasopressin V1 receptor (rat liver plasma membranes) (Rattus norvegicus, UniProt P30560)", "sequence (P30560 whole entry)": "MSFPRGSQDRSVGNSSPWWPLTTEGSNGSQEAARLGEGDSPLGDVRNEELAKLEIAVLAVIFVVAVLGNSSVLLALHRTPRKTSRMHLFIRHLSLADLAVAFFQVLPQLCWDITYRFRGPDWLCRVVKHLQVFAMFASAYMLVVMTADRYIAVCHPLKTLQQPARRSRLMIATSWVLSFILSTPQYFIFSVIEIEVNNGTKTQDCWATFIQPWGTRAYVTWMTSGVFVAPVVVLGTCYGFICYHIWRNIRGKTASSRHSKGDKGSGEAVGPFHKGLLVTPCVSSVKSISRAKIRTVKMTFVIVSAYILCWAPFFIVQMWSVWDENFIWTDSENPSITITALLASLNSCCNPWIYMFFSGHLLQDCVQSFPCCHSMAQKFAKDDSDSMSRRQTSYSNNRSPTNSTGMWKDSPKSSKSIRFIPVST", "assay": "Binding Assay to Rat Hepatic V1 Receptors", "conditions": "rat hepatic V1"}, "[3]": {"test_system": "vasopressin V1", "assay": "Vasopressin V1 Antagonist Activity in Conscious Rats (vasopressin vasopressor response)", "format": "in vivo, rat (spontaneously hypertensive rats)", "parameters": "Average Change: unit not given here", "experimental": "Conscious rats are restrained in a supine position with elastic tape. The area at the base of the tail is locally anesthetized by subcutaneous infiltration with 2% procaine (0.2 ml). Using aseptic technique the ventral caudal tail artery is isolated and a cannula made of PE 10 and 20 (heat-fused) tubing is passed into the lower abdominal aorta. The cannula is secured, heparinized (1000 i.u./cc), sealed and the wound closed with one or two stitches of Dexon 4-0. The caudal vein is also cannulated in the same manner for intravenous drug administration. The duration of the surgery is approximately 5 minutes. Additional local anesthesia (2% procaine or lidocaine) is provided as needed.\nThe animals are placed in plastic restraining cages in an upright position. The cannula is attached to a Statham P23Db pressure transducer and pulsatile blood pressure is recorded. […] The vasopressin injections are repeated 30, 60, 90, 120, 180, 240 and 300 min. later. Percentage of antagonism by the compound is calculated using the pre-drug vasopressin vasopressor response as 100%."}, "[4]": {"test_system": "vasopressin V2", "assay": "Vasopressin V2 Antagonist Activity in Conscious Hydrated Rats (diuretic effect)", "format": "in vivo, normal Sprague-Dawley rats", "conditions": "AVP 0.4 μg/kg i.p.", "experimental": "Conscious hydrated rats are treated with compounds under study from 0.1 to 100 mg/kg orally or vehicle. Two to four rats are used for each compound. One hour later, arginine vasopressin (AVP, antidiuretic hormore, ADH) dissolved in peanut oil is administered at 0.4 μg/kg intraperitoneally. Two rats in each test would not receive arginine vasopressin but only the vehicle (peanut oil) to serve as water-loading control. Twenty minutes later each rat is given 30 mL/kg of deionized water orally by gavage and is placed individually in a metabolic cage equipped with a funnel and a graduated glass cylinder to collect urine for four hours. Urine volume is measured and osmolality analyzed by use of a Fiske One-Ten osmometer (Fiske Assoc., Norwood, Mass., USA). Urinary sodium, potassium, and chloride are analyzed by use of ion-specific electrodes in a Beckman E3 (Electrolyte 3) Analyzer. In the following results, […] and decreased osmolality relative to AVP-control indicates activity."}, "[5]": {"conditions": "10 mg/kg i.v., VAS 0.01 i.u./kg, 30 min"}, "[6]": {"conditions": "10 mg/kg i.v., VAS 0.02 i.u./kg, 30 min"}, "[7]": {"conditions": "20 mg/kg i.v., VAS 0.01 i.u./kg, 60 min"}, "[8]": {"conditions": "20 mg/kg i.v., VAS 0.01 i.u./kg, 90 min"}, "[9]": {"conditions": "20 mg/kg i.v., VAS 0.01 i.u./kg, 120 min"}, "[10]": {"conditions": "20 mg/kg i.v., VAS 0.01 i.u./kg, 180 min"}, "[11]": {"conditions": "20 mg/kg i.v., VAS 0.01 i.u./kg, 240 min"}, "[12]": {"conditions": "20 mg/kg i.v., VAS 0.01 i.u./kg, 300 min"}, "[13]": {"conditions": "20 mg/kg i.v., VAS 0.02 i.u./kg, 60 min"}, "[14]": {"conditions": "20 mg/kg i.v., VAS 0.02 i.u./kg, 90 min"}, "[15]": {"conditions": "20 mg/kg i.v., VAS 0.02 i.u./kg, 120 min"}, "[16]": {"conditions": "20 mg/kg i.v., VAS 0.02 i.u./kg, 180 min"}, "[17]": {"conditions": "20 mg/kg i.v., VAS 0.02 i.u./kg, 240 min"}, "[18]": {"conditions": "20 mg/kg i.v., VAS 0.02 i.u./kg, 300 min"}}}
{"smiles": "Cc1ccccc1NC(=O)c1ccc(C(=O)N2Cc3ccccc3Cc3ccccc32)cc1", "note": "[Example 123, 4-[(6,11-Dihydro-5H-dibenz[b,e]azepin-5-yl)-carbonyl]-N-(2-methylphenyl)benzamide]", "values": [{"measurement": "IC50", "setting": "[1]", "result": 190, "unit": "nM"}, {"measurement": "IC50", "setting": "[2]", "result": 43, "unit": "nM"}, {"measurement": "Average Change", "setting": "[3]; [5]", "result": 17.5}, {"measurement": "Inhibition", "setting": "[3]; [5]", "result": 0, "unit": "%"}, {"measurement": "Average Change", "setting": "[3]; [6]", "result": 20}, {"measurement": "Inhibition", "setting": "[3]; [6]", "result": 39, "unit": "%"}, {"measurement": "Average Change", "setting": "[3]; [7]", "result": 6}, {"measurement": "Inhibition", "setting": "[3]; [7]", "result": 66, "unit": "%"}, {"measurement": "Average Change", "setting": "[3]; [8]", "result": 6}, {"measurement": "Inhibition", "setting": "[3]; [8]", "result": 66, "unit": "%"}, {"measurement": "Average Change", "setting": "[3]; [9]", "result": 5}, {"measurement": "Inhibition", "setting": "[3]; [9]", "result": 71, "unit": "%"}, {"measurement": "Average Change", "setting": "[3]; [10]", "result": 4}, {"measurement": "Inhibition", "setting": "[3]; [10]", "result": 77, "unit": "%"}, {"measurement": "Average Change", "setting": "[3]; [11]", "result": 8}, {"measurement": "Inhibition", "setting": "[3]; [11]", "result": 54, "unit": "%"}, {"measurement": "Average Change", "setting": "[3]; [12]", "result": 8}, {"measurement": "Inhibition", "setting": "[3]; [12]", "result": 54, "unit": "%"}, {"measurement": "Average Change", "setting": "[3]; [13]", "result": 6}, {"measurement": "Inhibition", "setting": "[3]; [13]", "result": 82, "unit": "%"}, {"measurement": "Average Change", "setting": "[3]; [14]", "result": 7}, {"measurement": "Inhibition", "setting": "[3]; [14]", "result": 79, "unit": "%"}, {"measurement": "Average Change", "setting": "[3]; [15]", "result": 4.5}, {"measurement": "Inhibition", "setting": "[3]; [15]", "result": 86, "unit": "%"}, {"measurement": "Average Change", "setting": "[3]; [16]", "result": 6.5}, {"measurement": "Inhibition", "setting": "[3]; [16]", "result": 80, "unit": "%"}, {"measurement": "Average Change", "setting": "[3]; [17]", "result": 6.5}, {"measurement": "Inhibition", "setting": "[3]; [17]", "result": 80, "unit": "%"}, {"measurement": "Average Change", "setting": "[3]; [18]", "result": 8}, {"measurement": "Inhibition", "setting": "[3]; [18]", "result": 76, "unit": "%"}, {"measurement": "Osmolality", "setting": "[4]; 10 mg/kg orally", "result": 1125, "unit": "mOsm/kg"}, {"measurement": "Urine Volume", "setting": "[4]; 10 mg/kg orally", "result": 5.8, "unit": "ml/4 hrs."}]}
{"smiles": "Cc1cccc(C(=O)Nc2ccc(C(=O)N3Cc4ccccc4Cc4cc(Cl)ccc43)cc2)c1C", "note": "[Example 138, N-[4-[(2-Chloro-6,11-dihydro-5H-dibenz[b,e]azepin-5-yl)carbonyl]phenyl]2,3-dimethylbenzamide]", "values": [{"measurement": "IC50", "setting": "[1]", "result": 51, "unit": "nM"}, {"measurement": "IC50", "setting": "[2]", "result": 46, "unit": "nM"}, {"measurement": "MAX % Inhibition", "setting": "[3]; 10 mg/kg i.v.", "result": 88, "unit": "%"}, {"measurement": "Time of max % inhibition", "setting": "[3]; 10 mg/kg i.v.", "result": 60, "unit": "min"}, {"measurement": "Osmolality", "setting": "[4]; 30 mg/kg orally", "result": 380, "unit": "mOsm/kg"}, {"measurement": "Urine Volume", "setting": "[4]; 30 mg/kg orally", "result": 13.8, "unit": "ml/4 hrs."}]}
